Results from PubChem BioAssay (NCI).
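These data come from cells grown in 96-well plates and exposed to compound for 48 hours at five concentrations. GI50 = concentration required for 50% inhibition of growth. TGI denotes the concentration required for complete inhibition of growth.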

Key:
Assay in all cases: inhibition of tumour cell growth, NCI panel, 48 h
K-562 leukemia = test system: K-562 leukemia
SNB-19 CNS = test system: SNB-19 CNS
UO-31 renal = test system: UO-31 renal
HS 578T breast = test system: HS 578T breast
ACHN renal = test system: ACHN renal
HL-60(TB) leukemia = test system: HL-60(TB) leukemia
786-0 renal = test system: 786-0 renal
SK-MEL-5 melanoma = test system: SK-MEL-5 melanoma
MCF7 breast = test system: MCF7 breast
M14 melanoma = test system: M14 melanoma
MDA-MB-231 breast = test system: MDA-MB-231 breast
NCI/ADR-RES ovarian = test system: NCI/ADR-RES ovarian
SF-539 CNS = test system: SF-539 CNS
MOLT-4 leukemia = test system: MOLT-4 leukemia
T-47D breast = test system: T-47D breast
SF-295 CNS = test system: SF-295 CNS
NCI-H23 lung = test system: NCI-H23 lung
NCI-H226 lung = test system: NCI-H226 lung
DU-145 prostate = test system: DU-145 prostate
EKVX NSCLC = test system: EKVX NSCLC
SK-MEL-28 melanoma = test system: SK-MEL-28 melanoma
SK-MEL-2 melanoma = test system: SK-MEL-2 melanoma
PC-3 prostate = test system: PC-3 prostate
LOX IMVI melanoma = test system: LOX IMVI melanoma
OVCAR-4 ovarian = test system: OVCAR-4 ovarian
OVCAR-3 ovarian = test system: OVCAR-3 ovarian
COLO 205 colon = test system: COLO 205 colon
RPMI-8226 leukemia = test system: RPMI-8226 leukemia
HOP-92 NSCLC = test system: HOP-92 NSCLC
IGROV1 ovarian = test system: IGROV1 ovarian
OVCAR-8 ovarian = test system: OVCAR-8 ovarian
OVCAR-5 ovarian = test system: OVCAR-5 ovarian
HCT-15 colon = test system: HCT-15 colon
TK-10 renal = test system: TK-10 renal
KM12 colon = test system: KM12 colon
CCRF-CEM leukemia = test system: CCRF-CEM leukemia
HT29 colon = test system: HT29 colon
A498 renal = test system: A498 renal
SNB-75 CNS = test system: SNB-75 CNS
A549 NSCLC = test system: A549 NSCLC
U251 CNS = test system: U251 CNS
SF-268 CNS = test system: SF-268 CNS
UACC-62 melanoma = test system: UACC-62 melanoma
NCI-H460 lung = test system: NCI-H460 lung
MDA-MB-435 = test system: MDA-MB-435
HCC-2998 colon = test system: HCC-2998 colon
SN12C renal = test system: SN12C renal
CAKI-1 renal = test system: CAKI-1 renal
SR leukemia = test system: SR leukemia
HOP-62 NSCLC = test system: HOP-62 NSCLC
SW-620 colon = test system: SW-620 colon
HCT-116 colon = test system: HCT-116 colon
NCI-H522 lung = test system: NCI-H522 lung
BT-549 breast = test system: BT-549 breast
UACC-257 melanoma = test system: UACC-257 melanoma

With `COc1ccc2c(c1)CCC1C2CCC2(C)C3=CC(O)CCC3CC12` (stereo not given) the GI50 (K-562 leukemia) was 13.1 µM, the TGI (K-562 leukemia) was 35.5 µM and the GI50 (SNB-19 CNS) was 21.5 µM. It also gave a TGI (SNB-19 CNS) of 42.5 µM, a GI50 (UO-31 renal) of 19.8 µM and a TGI (UO-31 renal) of 40.9 µM. For the same compound, the GI50 (HS 578T breast) was 23.4 µM, the TGI (HS 578T breast) was 49.1 µM and the GI50 (ACHN renal) was 20.1 µM. For the same compound, the TGI (ACHN renal) was 34.7 µM, the GI50 (HL-60(TB) leukemia) was 15.6 µM and the TGI (HL-60(TB) leukemia) was 35.5 µM. It also gave a GI50 (786-0 renal) of 17.4 µM, a TGI (786-0 renal) of 33.3 µM and a GI50 (SK-MEL-5 melanoma) of 11.7 µM. For the same compound, the TGI (SK-MEL-5 melanoma) was 23.9 µM, the GI50 (MCF7 breast) was 24.8 µM and the TGI (MCF7 breast) was 50.5 µM. For the same compound, the GI50 (M14 melanoma) was 15.7 µM, the TGI (M14 melanoma) was 30.2 µM and the GI50 (MDA-MB-231 breast) was 17.6 µM. It also gave a TGI (MDA-MB-231 breast) of 34.8 µM, a GI50 (NCI/ADR-RES ovarian) of 16 µM and a TGI (NCI/ADR-RES ovarian) of 34.5 µM. The GI50 (SF-539 CNS) was 18.3 µM, the TGI (SF-539 CNS) was 34.7 µM and the GI50 (MOLT-4 leukemia) was 18.3 µM. It also gave a TGI (MOLT-4 leukemia) of 43.7 µM, a GI50 (T-47D breast) of 23 µM and a TGI (T-47D breast) of 64.5 µM. For the same compound, the GI50 (SF-295 CNS) was 20.4 µM, the TGI (SF-295 CNS) was 46.1 µM and the GI50 (NCI-H23 lung) was 15.8 µM. The TGI (NCI-H23 lung) was 30.1 µM, the GI50 (NCI-H226 lung) was 18 µM and the TGI (NCI-H226 lung) was 40.7 µM. It also gave a GI50 (DU-145 prostate) of 15.7 µM, a TGI (DU-145 prostate) of 30.2 µM and a GI50 (EKVX NSCLC) of 16.9 µM. The TGI (EKVX NSCLC) was 36.2 µM, the GI50 (SK-MEL-28 melanoma) was 21.8 µM and the TGI (SK-MEL-28 melanoma) was 51.5 µM. For the same compound, the GI50 (SK-MEL-2 melanoma) was 18.9 µM, the TGI (SK-MEL-2 melanoma) was 56.6 µM and the GI50 (PC-3 prostate) was 15.2 µM. It also gave a TGI (PC-3 prostate) of 31.1 µM, a GI50 (LOX IMVI melanoma) of 15.4 µM and a TGI (LOX IMVI melanoma) of 31.8 µM. It also gave a GI50 (OVCAR-4 ovarian) of 28 µM, a TGI (OVCAR-4 ovarian) of 75.1 µM and a GI50 (OVCAR-3 ovarian) of 25.1 µM. For the same compound, the TGI (OVCAR-3 ovarian) was 53.6 µM, the GI50 (COLO 205 colon) was 32.7 µM and the TGI (COLO 205 colon) was 88.7 µM. For the same compound, the GI50 (RPMI-8226 leukemia) was 16.7 µM, the TGI (RPMI-8226 leukemia) was 43.9 µM and the GI50 (HOP-92 NSCLC) was 22.6 µM. It also gave a TGI (HOP-92 NSCLC) of 45.2 µM, a GI50 (IGROV1 ovarian) of 16.7 µM and a TGI (IGROV1 ovarian) of 37.2 µM. It also gave a GI50 (OVCAR-8 ovarian) of 18 µM, a TGI (OVCAR-8 ovarian) of 36.7 µM and a GI50 (OVCAR-5 ovarian) of 15.2 µM. For the same compound, the TGI (OVCAR-5 ovarian) was 29.1 µM, the GI50 (HCT-15 colon) was 7.06 µM and the TGI (HCT-15 colon) was 21.2 µM. The GI50 (TK-10 renal) was 21.2 µM, the TGI (TK-10 renal) was 43.2 µM and the GI50 (KM12 colon) was 19.8 µM. For the same compound, the TGI (KM12 colon) was 40.1 µM, the GI50 (CCRF-CEM leukemia) was 15.6 µM and the TGI (CCRF-CEM leukemia) was 36.3 µM. For the same compound, the GI50 (HT29 colon) was 11 µM, the TGI (HT29 colon) was 37.4 µM and the GI50 (A498 renal) was 16.7 µM. The TGI (A498 renal) was 35.4 µM, the GI50 (SNB-75 CNS) was 43.5 µM and the TGI (SNB-75 CNS) was over 100 µM. It also gave a GI50 (A549 NSCLC) of 14.7 µM, a TGI (A549 NSCLC) of 31.6 µM and a GI50 (U251 CNS) of 14 µM. The TGI (U251 CNS) was 27.4 µM, the GI50 (SF-268 CNS) was 20.3 µM and the TGI (SF-268 CNS) was 40.6 µM. For the same compound, the GI50 (UACC-62 melanoma) was 12.5 µM, the TGI (UACC-62 melanoma) was 25 µM and the GI50 (NCI-H460 lung) was 19.4 µM. The TGI (NCI-H460 lung) was 40.7 µM, the GI50 (MDA-MB-435) was 15.3 µM and the TGI (MDA-MB-435) was 35.4 µM. It also gave a GI50 (HCC-2998 colon) of 14.3 µM, a TGI (HCC-2998 colon) of 27.4 µM and a GI50 (SN12C renal) of 16.4 µM. The TGI (SN12C renal) was 30.9 µM, the GI50 (CAKI-1 renal) was 21.9 µM and the TGI (CAKI-1 renal) was 45.5 µM. The GI50 (SR leukemia) was 14.3 µM, the TGI (SR leukemia) was 37.5 µM and the GI50 (HOP-62 NSCLC) was 19.6 µM. It also gave a TGI (HOP-62 NSCLC) of 34.4 µM, a GI50 (SW-620 colon) of 14.4 µM and a TGI (SW-620 colon) of 30.1 µM. It also gave a GI50 (HCT-116 colon) of 15.7 µM, a TGI (HCT-116 colon) of 29.6 µM and a GI50 (NCI-H522 lung) of 14.3 µM. The TGI (NCI-H522 lung) was 31.5 µM, the GI50 (BT-549 breast) was 18.8 µM and the TGI (BT-549 breast) was 41.5 µM. For the same compound, the GI50 (UACC-257 melanoma) was 12.7 µM and the TGI (UACC-257 melanoma) was 26.2 µM.
